Measured values as given in US12473324B2, “Triazine-based amphiphilic compound and use thereof” (INDUSTRY-UNIVERSITY COOPERATION FOUNDATION HANYANG …, priority 2019, dated 2025).

What was measured:
[1] = Critical micelle concentration (CMC) by fluorescent dye diphenylhexatriene (DPH); assay type: physicochemical; conditions: DPH fluorescence
Description: A method of measuring the CMC is not particularly limited, but a method widely known in the art may be used, and for example, the CMC may be measured by a fluorescent staining method using diphenylhexatriene (DPH).
(§1) Specifically, the critical micelle concentrations (CMCs) were measured using a fluorescent dye, diphenylhexatriene (DPH), and the hydrodynamic radii (Rh) of micelles formed by each preparation (1.0 wt %) were determined by a dynamic light scattering (DLS) experiment. The measured results are shown in Table 1 compared to DDM which is an existing amphiphilic molecule (detergent).

[2] = Solubility of detergent (Table 1); assay type: physicochemical
[3] = biological target: human β2 adrenergic receptor (β2AR) (Homo sapiens, UniProt P07550); test: β2AR stability: [3H]-dihydroalprenolol (DHA) ligand binding assay; conditions: CMC+0.2 wt %, room temperature, 6 days, [3H]-DHA
Sequence of human β2 adrenergic receptor (β2AR) (P07550 whole entry): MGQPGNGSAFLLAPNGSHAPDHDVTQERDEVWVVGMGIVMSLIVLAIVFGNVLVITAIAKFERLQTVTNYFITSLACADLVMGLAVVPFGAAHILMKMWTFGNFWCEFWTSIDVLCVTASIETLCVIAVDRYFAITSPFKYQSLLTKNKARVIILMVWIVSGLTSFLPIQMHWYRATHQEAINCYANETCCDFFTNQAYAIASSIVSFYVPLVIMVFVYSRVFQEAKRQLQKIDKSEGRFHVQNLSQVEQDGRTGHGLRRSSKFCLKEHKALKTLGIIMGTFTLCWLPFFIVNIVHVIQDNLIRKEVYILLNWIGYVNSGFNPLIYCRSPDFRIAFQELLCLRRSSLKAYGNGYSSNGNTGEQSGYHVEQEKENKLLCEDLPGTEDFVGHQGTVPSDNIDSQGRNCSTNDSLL
Description: Experiments were performed to measure the structural stability of the human β2 adrenergic receptor (β2AR) and G-protein-coupled receptor (GPCR) by TSMs, TTGs and TEMs. That is, a receptor purified by DDM was subjected to amphiphilic molecular exchange when diluted with a buffer solution containing only each of TSMs, TTGs and TEMs without cholesteryl hemisuccinate (CHS) or a buffer solution containing CHS and DDM. The final concentration of the amphiphilic molecule was CMC+0.2 wt %, and the ligand binding properties of the receptor were measured by binding of [^3H]-dihydroalprenolol ([^3H]-DHA). Specifically, the following method was used for a radioligand binding test. β2AR was purified using 0.1% DDM (D. M. Rosenbaum et al., Science, 2007, 318, 1266-1273.) and finally concentrated to about 10 mg/ml (about 200 μM). A master binding mixture containing 10 nM [^3H]-dihydroalprenolol (DHA) supplemented with 0.5 mg/ml BSA in 0.2% amphiphilic compounds (DDM, TSMs, TTGs or TEMs) was prepared using β2AR purified with DDM. Receptors purified with DDM, TSMs, TTGs or TEMs were incubated with 10 nM [^3H]-DHA at room temperature for 6 days. The mixture was loaded onto a G-50 column and a flow through was collected with 1 ml of a binding buffer (20 mM HEPES supplemented with 0.5 mg/ml BSA and 20×CMC each amphiphilic compound, pH 7.5, 100 mM NaCl), and filled with 15 ml of a scintillation fluid. Receptor-bound [^3H]-DHA was measured by a scintillation counter (Beckman). The binding of [^3H]-DHA is shown as a column graph.

[4] = test system: leucine transporter (LeuT); test: LeuT structural stability: [3H]-Leu binding by scintillation proximity assay (SPA); assay type: biochemical, Aquifex aeolicus; conditions: CMC+0.04 wt % or CMC+0.2 wt %, room temperature, 13-day incubation, [3H]-Leu SPA
Description: Experiments were performed to measure the structural stability of the LeuT protein by TSMs, TTGs and TEMs. Each amphiphilic compound was used at a concentration of (a) CMC+0.04 wt % or (b) CMC+0.2 wt %, and the substrate binding properties of LeuT were measured using [^3H]-Leu via scintillation proximity assay (SPA). The measurement was performed at regular intervals over the course of a 13-day and 12-day incubation at room temperature, respectively.
Specifically, a wild-type leucine transporter (LeuT) derived from the thermophilic bacterium Aquifex aeolicus was purified by a previously described method (Nature 1998, 392, 353-358 by G. Deckert et al.). LeuT was expressed in E. coli C41 (DE3) transformed with pET16b encoding the C-terminal 8×His-tagged transporter (expression plasmids were provided from Dr E. Gouaux, Vollum Institute, Portland, Oregon, USA). In summary, after a bacterial membrane was isolated and solubilized in 1 wt % DDM, the protein was bound to Ni^2+-NTA resin (Life Technologies, Denmark), and eluted in 20 mM Tris-HCl (pH 8.0), 1 mM NaCl, 199 mM KCl, 0.05% (w/v) DDM and 300 mM imidazole. Then, the purified LeuT (0.5 mg/ml) was diluted with buffers supplemented with TSMs, TTGs, TEMs or DDM at a final concentration of CMC+0.04% (w/v) or CMC+0.2% (w/v) except for DDM and imidazole in the equivalent buffer described above. Protein samples were incubated at room temperature for 13 days, centrifuged at a specified time, and protein properties were confirmed by measuring [^3H]-Leucine binding ability using SPA. SPA was performed with 5 μL of each protein sample in a buffer containing 450 mM NaCl and each of TSMs and TEMs (or DDM). The SPA reaction was performed in the presence of 20 nM [^3H]-Leucine and 1.25 mg/ml copper chelate (His-Tag) YSi beads (PerkinElmer, Denmark). Overall [^3H]-Leucine coupling to each sample was measured using a MicroBeta liquid scintillation counter (Perkin Elmer).

[5] = Hydrodynamic radius (Rh) of micelles by dynamic light scattering (DLS); assay type: physicochemical; conditions: 1.0 wt % detergent
Description: A method of measuring the radius of micelle is not particularly limited, but a method widely known in the art may be used, and for example, the radius of micelle may be measured using a dynamic light scattering (DLS) experiment.
as §1

μ-opioid receptor (MOR) [6] = biological target: T1, μ-opioid receptor (MOR) (Mus musculus, UniProt P42866); test: MOR thermal stability test (CPM dye, melting point Tm); assay type: biochemical; conditions: 0.5 wt % compound, CPM fluorescence, 20° C. to 65° C.
T1 sequence (P42866 whole entry): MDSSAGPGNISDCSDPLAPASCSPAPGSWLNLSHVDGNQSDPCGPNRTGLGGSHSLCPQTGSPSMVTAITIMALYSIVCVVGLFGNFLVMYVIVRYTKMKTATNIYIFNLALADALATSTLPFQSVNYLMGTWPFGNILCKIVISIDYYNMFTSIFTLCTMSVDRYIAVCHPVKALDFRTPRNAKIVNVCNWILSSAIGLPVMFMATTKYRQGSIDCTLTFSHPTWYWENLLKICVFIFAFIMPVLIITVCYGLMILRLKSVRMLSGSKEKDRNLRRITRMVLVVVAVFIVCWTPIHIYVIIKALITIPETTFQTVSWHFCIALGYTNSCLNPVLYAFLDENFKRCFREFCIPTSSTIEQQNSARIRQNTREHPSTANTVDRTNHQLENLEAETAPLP
Description: An N-[4-(7-diethylamino-4-methyl-3-coumarinyl)phenyl]maleimide (CPM) dye dissolved in DMSO (3 mg/ml) was diluted 40× in a buffer including 20 mM HEPES pH 7.5 and 150 mM NaCl. […] After 1 hour at room temperature, a compound was prepared at a final concentration of 0.5 wt % by diluting the receptor solution 2× in 20 mM HEPES pH 7.5, 150 mM NaCl. After […] of the diluted CPM dye was added thereto, the receptor stability of different compounds was measured by recording the fluorescence spectra (excitation 387 nm) every 5° C. from 20° C. to 65° C. while culturing at each temperature for 2 minutes. The melting point (Tm) was calculated by plotting the read value at 470 nm and fitting a non-linear regression curve using GraphPad Prism.

BOR1-GFP fusion protein = test: AtBOR1 thermal stability, fluorescence size exclusion chromatography (FSEC); conditions: 1% detergent, heated at 47° C. for 10 minutes
Description: Fluorescence size exclusion chromatography (FSEC): BOR1 of Arabidopsis thaliana was expressed in Saccharomyces cerevisiae FGY217 cells as a fusion protein having a C-terminal GFP tag. The cells were grown in a URA medium supplemented with 0.1% glucose. Protein expression was induced by adding 2% galactose, and then the cells were cultured at 20° C. for 18 hours as previously described. The cells were collected and used to prepare a membrane. The membrane including the BOR1-GFP fusion protein was diluted as follows. […] Samples were cultured while shaking at 4° C. for 1 hour, and then insoluble materials were removed by centrifugation at 14,000 g and 4° C. for 1 hour. A supernatant including the solubilized protein sample was heated at 47° C. for 10 minutes. After additional centrifugation to remove large aggregates, a 200 μl aliquot of the sample was injected into a Superose 6 10/300 column equilibrated with 20 mm Tris (pH 7.5), 150 mm NaCl and 0.03% DDM. The GFP fluorescence of each fraction was read using an excitation wavelength of 470 nm and an emission wavelength of 512 nm.

AtBOR1 = AtBOR1 (Arabidopsis thaliana, UniProt Q8VYR7); test: AtBOR1 thermal denaturation, CPM assay; assay type: biochemical; conditions: CMC+0.04 wt %, 40° C., 120 minutes
Sequence of AtBOR1 (Q8VYR7 whole entry): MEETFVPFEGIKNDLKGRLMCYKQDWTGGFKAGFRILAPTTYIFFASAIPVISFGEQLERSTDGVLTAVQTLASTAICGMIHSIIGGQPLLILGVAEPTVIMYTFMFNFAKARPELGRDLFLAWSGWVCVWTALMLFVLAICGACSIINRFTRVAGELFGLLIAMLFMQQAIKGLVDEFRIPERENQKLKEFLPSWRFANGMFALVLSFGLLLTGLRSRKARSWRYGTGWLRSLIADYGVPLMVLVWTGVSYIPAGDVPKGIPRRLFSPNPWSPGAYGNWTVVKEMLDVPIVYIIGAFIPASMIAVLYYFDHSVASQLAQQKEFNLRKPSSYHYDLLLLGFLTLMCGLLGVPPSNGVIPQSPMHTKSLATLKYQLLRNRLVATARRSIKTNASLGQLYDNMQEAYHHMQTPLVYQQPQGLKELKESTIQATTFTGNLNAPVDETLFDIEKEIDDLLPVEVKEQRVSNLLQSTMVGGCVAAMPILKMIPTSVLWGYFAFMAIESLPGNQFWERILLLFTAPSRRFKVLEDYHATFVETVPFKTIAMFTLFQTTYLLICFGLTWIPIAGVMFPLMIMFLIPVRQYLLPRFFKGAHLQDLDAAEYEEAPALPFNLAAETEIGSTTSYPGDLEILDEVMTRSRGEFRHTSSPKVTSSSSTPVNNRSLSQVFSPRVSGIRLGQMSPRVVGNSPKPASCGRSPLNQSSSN
Description: CPM assay: AtBOR1 was concentrated to 10 mg/ml in a buffer (20 mM Tris-HCl (pH 7.5), 150 mM NaCl, 0.03% DDM) with a 100 kDa MWCO centrifugal filter, stored at −80° C. and thawed immediately prior to thermal stability analysis. […] A 7-diethylamino-3-(4′-maleimidylphenyl)-4-methylcoumarin (CPM) dye (Invitrogen) was dissolved in DMSO at 4 mg/ml, and was diluted 1:100 with a buffer (150 mM NaCl supplemented with 20 mM Tris-HCl (pH 7.5) and 0.03% DDM). After 3 μL of the CPM dye was added to each well in the dark, the plate was covered with a transparent lid and the cells were cultured at 40° C. for 120 minutes. Fluorescence emission was monitored every 5 minutes using SpectraMax M2 (Molecular Devices) with a […] of 387 nm and an emission wavelength of 463 nm. Fluorescence readings were normalized under the most unstable conditions to calculate the percentage of proteins that were relatively unfolded. Data was analyzed as a single exponential decay curve using GraphPad Prism 6.

[7] = biological target: T2, Salmonella typhimurium melibiose permease (MelBSt) (Salmonella typhimurium, UniProt P30878); test: MelB extraction and thermal solubilization stability (SDS-PAGE, Western blotting); assay type: biochemical; conditions: 1.5 wt % detergent, 90 minutes
T2 construct: made in house; host or cells: E. coli DW2 cells
T2 sequence (P30878 whole entry): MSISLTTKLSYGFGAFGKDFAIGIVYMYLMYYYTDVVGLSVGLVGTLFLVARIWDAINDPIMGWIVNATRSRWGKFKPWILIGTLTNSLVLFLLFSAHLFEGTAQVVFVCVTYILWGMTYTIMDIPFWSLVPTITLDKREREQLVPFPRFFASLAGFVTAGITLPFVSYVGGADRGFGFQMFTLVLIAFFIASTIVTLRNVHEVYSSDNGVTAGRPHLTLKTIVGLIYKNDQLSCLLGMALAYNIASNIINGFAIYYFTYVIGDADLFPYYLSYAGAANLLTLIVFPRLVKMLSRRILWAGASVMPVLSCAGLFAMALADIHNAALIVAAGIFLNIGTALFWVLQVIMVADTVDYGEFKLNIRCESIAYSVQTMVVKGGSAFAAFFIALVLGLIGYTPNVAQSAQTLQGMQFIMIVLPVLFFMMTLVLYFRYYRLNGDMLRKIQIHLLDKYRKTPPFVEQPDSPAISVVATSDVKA
Description: Experiments were performed to measure the structural stability of Salmonella typhimurium melibiose permease (MelBSt) protein by TSMs, TTGs and TEMs. After the MelB protein was extracted from the membrane using TSMs, TTGs, TEMs or DDM, the amount and structure of the extracted protein were analyzed by SDS-PAGE and Western blotting. The concentration of the amphiphilic compound used was 1.5 wt %, the protein was extracted at 0° C. for 90 minutes and then the extracted protein was incubated at three high temperatures (45, 55, and 65° C.) for an additional 90 minutes. By measuring the amount of protein remaining in a dissolved state in an aqueous solution of the extracted protein and the heat-treated protein, we tried to evaluate the performance of both the protein extraction efficiency and stabilization ability of the compound at the same time. […]
Specifically, Salmonella typhimurium melibiose permease (MelBSt) having a 10-His tag at the C-terminus was expressed in E. coli DW2 cells (βmelB and βlacZY) using a plasmid pK95βAHB/WT MelBSt/CH10. […] MelBSt was measured by an ImageQuant LAS 4000 Biomolecular Imager (GE Health Care Lifer Science) using a SuperSignal West Pico chemiluminescent substrate.

μ-opioid receptor (MOR) [8] = biological target: T1, μ-opioid receptor (MOR); conditions: LMNG not among the compounds of the described test; cited from earlier work

CMC [1] [mM]	solubility [2] [%]	LeuT substrate binding properties over incubation [4]	Rh (nm) [5] [nm]	MOR melting point (Tm) (μ-opioid receptor (MOR) [6]) [°C]	ability to preserve AtBOR1 in the folded state (CPM) (AtBOR1)	SMILES	β2AR long-term ligand binding retention [3]	AtBOR1 thermal stability by FSEC (protein peak vs aggregation peak) (BOR1-GFP fusion protein)	MelB protein extraction efficiency at 0° C. [7]	MOR melting point (Tm) of LMNG, comparison value (μ-opioid receptor (MOR) [8]) [°C]
~0.004	~10	best substrate binding activity	5.1 ± 0.1			CCCCCCCCCSc1nc(NC(CO[C@@H]2O[C@H](CO)[C@@H](O[C@H]3O[C@H](CO)[C@@H](O)[C@H](O)[C@H]3O)[C@H](O)[C@H]2O)CO[C@@H]2O[C@H](CO)[C@@H](O[C@H]3O[C@H](CO)[C@@H](O)[C@H](O)[C@H]3O)[C@H](O)[C@H]2O)nc(SCCCCCCCCC)n1 [TSM-T9]	better in maintaining the ligand binding ability of the receptor than DDM			
~0.004	~5		8.7 ± 0.7	48.9		CCCCCCCCCCOc1nc(NC(CO[C@@H]2O[C@H](CO)[C@@H](O[C@H]3O[C@H](CO)[C@@H](O)[C@H](O)[C@H]3O)[C@H](O)[C@H]2O)CO[C@@H]2O[C@H](CO)[C@@H](O[C@H]3O[C@H](CO)[C@@H](O)[C@H](O)[C@H]3O)[C@H](O)[C@H]2O)nc(OCCCCCCCCCC)n1 [TSM-E10]	better in maintaining the ligand binding ability of the receptor than DDM			
~0.005	~5	best substrate binding activity	4.5 ± 0.1	48.0	best performance	CCCCCCCCCCOc1nc(OCCCCCCCCCC)nc(N(CCO[C@@H]2O[C@H](CO)[C@@H](O[C@H]3O[C@H](CO)[C@@H](O)[C@H](O)[C@H]3O)[C@H](O)[C@H]2O)CCO[C@@H]2O[C@H](CO)[C@@H](O[C@H]3O[C@H](CO)[C@@H](O)[C@H](O)[C@H]3O)[C@H](O)[C@H]2O)n1 [TEM-E10]		highly effective in maintaining the initial state of the protein		
~0.004	~10	best substrate binding activity	3.7 ± 0.09			CCCCCCCCCCCSc1nc(NC(CO[C@@H]2O[C@H](CO)[C@@H](O)[C@H](O)[C@H]2O)(CO[C@@H]2O[C@H](CO)[C@@H](O)[C@H](O)[C@H]2O)CO[C@@H]2O[C@H](CO)[C@@H](O)[C@H](O)[C@H]2O)nc(SCCCCCCCCCCC)n1 [TTG-T11]	better in maintaining the ligand binding ability of the receptor than DDM			
~0.0035	~5	best substrate binding activity	5.5 ± 0.20			CCCCCCCCCCCCSc1nc(NC(CO[C@@H]2O[C@H](CO)[C@@H](O)[C@H](O)[C@H]2O)(CO[C@@H]2O[C@H](CO)[C@@H](O)[C@H](O)[C@H]2O)CO[C@@H]2O[C@H](CO)[C@@H](O)[C@H](O)[C@H]2O)nc(SCCCCCCCCCCCC)n1 [TTG-T12]	better in maintaining the ligand binding ability of the receptor than DDM			
						CCCCCCCCCCC(CCCCCCCCCC)(CO[C@@H]1O[C@H](CO)[C@@H](O[C@H]2O[C@H](CO)[C@@H](O)[C@H](O)[C@H]2O)[C@H](O)[C@H]1O)CO[C@@H]1O[C@H](CO)[C@@H](O[C@H]2O[C@H](CO)[C@@H](O)[C@H](O)[C@H]2O)[C@H](O)[C@H]1O [LMNG]				38.3

SMILES	CMC [1] [mM]	solubility [2] [%]	LeuT substrate binding properties over incubation [4]	Rh (nm) [5] [nm]	MOR melting point (Tm) (μ-opioid receptor (MOR) [6]) [°C]	ability to preserve AtBOR1 in the folded state (CPM) (AtBOR1)	β2AR long-term ligand binding retention [3]	AtBOR1 thermal stability by FSEC (protein peak vs aggregation peak) (BOR1-GFP fusion protein)	MelB protein extraction efficiency at 0° C. [7]	MOR melting point (Tm) of LMNG, comparison value (μ-opioid receptor (MOR) [8]) [°C]
CCCCCCCCCCCCO[C@@H]1O[C@H](CO)[C@@H](O[C@H]2O[C@H](CO)[C@@H](O)[C@H](O)[C@H]2O)[C@H](O)[C@H]1O [DDM, n-dodecyl-β-D-maltopyranoside, reference compound]	~0.17	~10	high initial activity, but the substrate binding ability sharply decreased with the passage of time	3.4 ± 0.03				significant reduction in the original homogeneous protein peak	high MelB protein extraction efficiency	
CCCCCCCCCCSc1nc(NC(CO[C@@H]2O[C@H](CO)[C@@H](O)[C@H](O)[C@H]2O)(CO[C@@H]2O[C@H](CO)[C@@H](O)[C@H](O)[C@H]2O)CO[C@@H]2O[C@H](CO)[C@@H](O)[C@H](O)[C@H]2O)nc(SCCCCCCCCCC)n1 [TTG-T10]	~0.006	~10	best substrate binding activity	3.6 ± 0.10			better in maintaining the ligand binding ability of the receptor than DDM			
